Measured values published in US9045466B2, “Amidine compound or salt thereof” (priority 2011, dated 2015).
Converted amounts (≈) assume the structure as drawn. Structures can show the parent of a compound that is named as a salt.

The compounds below were run on Candida albicans TIMM 1623 (assay: Fungal susceptibility test, broth microdilution method (MIC)). Settings: TIMM1623, 48 h, RPMI/MOPS pH 7.0, 35° C. for 2 days, visual, lowest concentration with approximately 50% growth inhibition, read-out: MIC (μg/mL) C. albicans TIMM1623.
Format: cell-based
Method: (§1) The fungal susceptibility tests on test substances were conducted by the broth microdilution method equivalent to Clinical and Laboratory Standards Institute method. The medium used in the susceptibility tests was RPMI1640 adjusted to pH 7.0 with 0.165 mol/L morpholinepropanesulfonic acid (MOPS) and 50% sodium hydroxide (RPMI/MOPS). Each test substance was dissolved in DMSO and serially diluted in 2-fold increments with DMSO on a 96-well microplate. Then, the dilutions were dispensed by 1 μL to a 96-well microplate. Candida albicans TIMM 1623 cultured overnight at 35° C. in Sabouraud's agar medium was suspended in sterile saline. The number of cells was counted under a biological microscope, and the fungal suspension was diluted with RPMI/MOPS to prepare the inoculum solution (approximately 1×10^3 cells/mL). Alternatively, Candida albicans TIMM 1623 stored at −80° C. was diluted with RPMI/MOPS to prepare the inoculum solution (approximately 1×10^3 CFU/mL). Aspergillus fumigatus TIMM 0063 stored at 5° C. was diluted with RPMI/MOPS to prepare the inoculum solution (approximately 1×10^4 CFU/mL). Trichophyton rubrum NBRC 5467 stored at 5° C. or −80° C. was diluted with RPMI/MOPS to prepare the inoculum solution (approximately 2×10^3 CFU/mL). The 199 μL of inoculum solution was dispensed to each well to prepare the microplate containing the designated concentrations of test substance, medium and fungal cells. Candida albicans and Aspergillus fumigatus were cultured at 35° C. for 2 days. Trichophyton rubrum was cultured at 35° C. for 4 days. After the completion of culture, MIC was determined by visual observation. The MICs of Candida albicans and Aspergillus fumigatus were set to the lowest concentration at which approximately 50% growth inhibition was seen, when compared with a growth control without the addition of the test substance. The MIC of Trichophyton rubrum was set to the lowest concentration at which approximately 80% growth inhibition was seen, when compared with a growth control without the addition of the test substance.

MIC [µg/mL] | SMILES
0.0313 | CCN(C)/C=N/c1cc(C)c(Cc2nc(C(=O)c3ccc(C(F)(F)F)cc3)cs2)cc1C [Example 36, N′-{2,5-Dimethyl-4-[(4-{[4-(trifluoromethyl)phenyl]carbonyl}-1,3-thiazol-2-yl)methyl]phenyl}-N-ethyl-N-methylimidoformamide hydrobromide]
0.0625 (≈ 0.139 µM) | CCN(C)/C=N/c1cc(C)c(Cc2nc(-c3ccc(C(=O)N(C)CC)cc3)cs2)cc1C [Example 42, N-Ethyl-4-{2-[4-({(E)-[ethyl(methyl)amino]methylidene}amino)-2,5-dimethylbenzyl]-1,3-thiazol-4-yl}-N-methylbenzamide]
0.0625 (≈ 0.131 µM) | CCN(C)/C=N/c1cc(C)c(Cc2nc(-c3ccc(C(=O)NCC(C)(C)C)cc3)cs2)cc1C [Example 99, N-(2,2-Dimethylpropyl)-4-{2-[4-({(E)-[ethyl(methyl)amino]methylidene}amino)-2,5-dimethylbenzyl]-1,3-thiazol-4-yl}benzamide]

Same assay, conditions: TIMM1623, 48 h, pH 7, read-out: MIC (μg/mL) C. albicans TIMM1623

SMILES | MIC [µg/mL]
CCN(C)/C=N/c1cc(C)c(Cc2nc(-c3cnc(C(C)(C)C(F)(F)F)cn3)cs2)cc1C [Example 4, N′-[2,5-Dimethyl-4-({4-[5-(1,1,1-trifluoro-2-methylpropan-2-yl)pyrazin-2-yl]-1,3-thiazol-2-yl}methyl)phenyl]-N-ethyl-N-methylimidoformamide hydrochloride] | 0.0313
CCN(C)/C=N/c1cc(C)c(Cc2nc(-c3ccc(C(=O)OC)cc3)cs2)cc1C [Example 14, Methyl 4-{2-[4-({(E)-[ethyl(methyl)amino]methylidene}amino)-2,5-dimethylbenzyl]-1,3-thiazol-4-yl}benzoate dihydrochloride] | 0.0625
CCN(C)/C=N/c1cc(C)c(Cc2nc(-c3ccc(C(C)(C)C)cc3)cs2)cc1C [Example 17, N′-(4-{[4-(4-Tert-butylphenyl)-1,3-thiazol-2-yl]methyl}-2,5-dimethylphenyl)-N-ethyl-N-methylimidoformamide dihydrochloride] | 0.0313
CCN(C)/C=N/c1cc(C)c(Cc2nc(-c3ncc(C(C)(C)C)s3)cs2)cc1C [Example 20, N′-{4-[(5-Tert-butyl-2,4′-bi-1,3-thiazol-2′-yl)methyl]-2,5-dimethylphenyl}-N-ethyl-N-methylimidoformamide dihydrochloride] | 0.0313

What follows are compounds tested on Trichophyton rubrum NBRC 5467 in the same assay as above. Settings: NBRC5467, 96 h, RPMI/MOPS pH 7.0, 35° C. for 4 days, visual, lowest concentration with approximately 80% growth inhibition, read-out: MIC (μg/mL) T. rubrum NBRC5467.
Format: cell-based
Method: as §1

MIC [µg/mL] | SMILES
0.0156 (≈ 0.0391 µM) | CCN(C)/C=N/c1cc(C)c(Cc2nc(C(=O)NC3CCCC3)cs2)cc1C [Example 74, N-Cyclopentyl-2-[4-({(E)-[ethyl(methyl)amino]methylidene}amino)-2,5-dimethylbenzyl]-1,3-thiazole-4-carboxamide]
0.0156 (≈ 0.042 µM) | CCN(C)/C=N/c1cc(C)c(Cc2nc(C3CCOCC3)cs2)cc1C [Example 81, N′-(2,5-Dimethyl-4-{[4-(tetrahydro-2H-pyran-4-yl)-1,3-thiazol-2-yl]methyl}phenyl)-N-ethyl-N-methylimidoformamide]
0.0039 (≈ 0.00974 µM) | CCN(C)/C=N/c1cc(C)c(Cc2nc(C(=O)NC(C)(C)CC)cs2)cc1C [Example 86, 2-[4-({(E)-[Ethyl(methyl)amino]methylidene}amino)-2,5-dimethylbenzyl]-N-(2-methylbutan-2-yl)-1,3-thiazole-4-carboxamide]
0.0156 (≈ 0.0366 µM) | CCN(C)/C=N/c1cc(C)c(Cc2nc(C3CCC(C(=O)NC)CC3)cs2)cc1C (stereo not drawn) [Example 87, 4-{2-[4-({(E)-[Ethyl(methyl)amino]methylidene}amino)-2,5-dimethylbenzyl]-1,3-thiazol-4-yl}-N-methylcyclohexanecarboxamide]
0.0625 (≈ 0.149 µM) | CCN(C)/C=N/c1cc(C)c(Cc2nc(-c3ccc4c(c3)CNC4=O)cs2)cc1C [Example 89, N′-(2,5-Dimethyl-4-{[4-(1-oxo-2,3-dihydro-1H-isoindol-5-yl)-1,3-thiazol-2-yl]methyl}phenyl)-N-ethyl-N-methylimidoformamide]
0.125 (≈ 0.318 µM) | CN/C=N/c1cc(C)c(Cc2nc(-c3ccc(C(=O)NC)cc3)cs2)cc1C [Example 95, 4-[2-(2,5-Dimethyl-4-{[(E)-(methylamino)methylidene]amino}benzyl)-1,3-thiazol-4-yl]-N-methylbenzamide]
0.0156 (≈ 0.0348 µM) | CCN(C)/C=N/c1cc(C)c(Cc2nc(-c3ccc(C(=O)NC(C)C)cc3)cs2)cc1C [Example 98, 4-{2-[4-({(E)-[Ethyl(methyl)amino]methylidene}amino)-2,5-dimethylbenzyl]-1,3-thiazol-4-yl}-N-(propan-2-yl)benzamide]
0.0625 (≈ 0.14 µM) | CCN(C)/C=N/c1cc(C)c(Cc2nc(-c3ccc(C(=O)N4CCC4)cc3)cs2)cc1C [Example 101, N′-[4-({4-[4-(Azetidin-1-ylcarbonyl)phenyl]-1,3-thiazol-2-yl}methyl)-2,5-dimethylphenyl]-N-ethyl-N-methylimidoformamide]
0.0078 (≈ 0.0201 µM) | CCN(C)/C=N/c1cc(C)c(Cc2nc(NC(=O)OC(C)C)cs2)cc1C [Example 102, Propan-2-yl {2-[4-({(E)-[ethyl(methyl)amino]methylidene}amino)-2,5-dimethylbenzyl]-1,3-thiazol-4-yl}carbamate]

Same assay, conditions: NBRC5467, 96 h, pH 7, read-out: MIC (μg/mL) T. rubrum NBRC5467

SMILES | MIC [µg/mL]
CCN(C)/C=N/c1cc(C)c(Cc2nc(-c3cnc(C(C)(C)C(F)(F)F)cn3)cs2)cc1C [Example 4, N′-[2,5-Dimethyl-4-({4-[5-(1,1,1-trifluoro-2-methylpropan-2-yl)pyrazin-2-yl]-1,3-thiazol-2-yl}methyl)phenyl]-N-ethyl-N-methylimidoformamide hydrochloride] | 0.002
CCN(C)/C=N/c1cc(C)c(Cc2nc(-c3ccc(C(C)(C)C)cc3)cs2)cc1C [Example 17, N′-(4-{[4-(4-Tert-butylphenyl)-1,3-thiazol-2-yl]methyl}-2,5-dimethylphenyl)-N-ethyl-N-methylimidoformamide dihydrochloride] | 0.002
CCN(C)/C=N/c1cc(C)c(Cc2nc(-c3ncc(C(C)(C)C)s3)cs2)cc1C [Example 20, N′-{4-[(5-Tert-butyl-2,4′-bi-1,3-thiazol-2′-yl)methyl]-2,5-dimethylphenyl}-N-ethyl-N-methylimidoformamide dihydrochloride] | 0.002
CCN(C)/C=N/c1cc(C)c(Cc2nc(C(=O)NCc3ccccc3)cs2)cc1C [Example 44, N-Benzyl-2-[4-({(E)-[ethyl(methyl)amino]methylidene}amino)-2,5-dimethylbenzyl]-1,3-thiazole-4-carboxamide dihydrochloride] | 0.0625
CCN(C)/C=N/c1cc(C)c(Cc2nc(C3CC3)cs2)cc1C [Example 45, N′-{4-[(4-Cyclopropyl-1,3-thiazol-2-yl)methyl]-2,5-dimethylphenyl}-N-ethyl-N-methylimidoformamide dihydrochloride] | 0.0313
CCN(C)/C=N/c1cc(C)c(Cc2nc(-c3ccc(C)cc3)cs2)nc1C [Example 47, N′-(2,5-Dimethyl-6-{[4-(4-methylphenyl)-1,3-thiazol-2-yl]methyl}pyridin-3-yl)-N-ethyl-N-methylimidoformamide dihydrochloride] | 0.0313
CCN(C)/C=N/c1ccc(Cc2nc(-c3ccc(Cl)cc3)cs2)cc1 [Example 51, N′-(4-{[4-(4-Chlorophenyl)-1,3-thiazol-2-yl]methyl}phenyl)-N-ethyl-N-methylimidoformamide hydrochloride] | 0.25
CCN(C)/C=N/c1cc(C)c(Cc2nc(COC(C)C)cs2)cc1C [Example 63, N′-[2,5-Dimethyl-4-({4-[(propan-2-yloxy)methyl]-1,3-thiazol-2-yl}methyl)phenyl]-N-ethyl-N-methylimidoformamide dihydrochloride] | 0.0156
CCN(C)/C=N/c1cc(C)c(Cc2nc(-c3ccn(C)c(=O)c3)cs2)cc1C [Example 67, N′-(2,5-Dimethyl-4-{[4-(1-methyl-2-oxo-1,2-dihydropyridin-4-yl)-1,3-thiazol-2-yl]methyl}phenyl)-N-ethyl-N-methylimidoformamide dihydrochloride] | 0.0625
CCN(C)/C=N/c1cc(C)c(Cc2nc(C(=O)N(C)C3CCCCC3)cs2)cc1C [Example 71, N-Cyclohexyl-2-[4-({(E)-[ethyl(methyl)amino]methylidene}amino)-2,5-dimethylbenzyl]-N-methyl-1,3-thiazole-4-carboxamide hydrochloride] | 0.0156
CCN(C)/C=N/c1cc(C)c(Cc2nc(C(=O)NC3CCC(F)(F)CC3)cs2)cc1C [Example 96, N-(4,4-Difluorocyclohexyl)-2-[4-({(E)-[ethyl(methyl)amino]methylidene}amino)-2,5-dimethylbenzyl]-1,3-thiazole-4-carboxamide hydrochloride] | 0.0313
CCN(C)/C=N/c1cc(C)c(Cc2nc(NC(=O)OC3CCCCC3)cs2)cc1C [Example 97, Cyclohexyl {2-[4-({(E)-[ethyl(methyl)amino]methylidene}amino)-2,5-dimethylbenzyl]-1,3-thiazol-4-yl}carbamate hydrochloride] | 0.0078
CCN/C=N/c1cc(C)c(Cc2nc(-c3cnc(C)cn3)cs2)cc1C [Example 105, N′-(2,5-Dimethyl-4-{[4-(5-methylpyrazin-2-yl)-1,3-thiazol-2-yl]methyl}phenyl)-N-ethylimidoformamide hydrochloride] | 0.0313
CCN(C)/C=N/c1cc(C)c(Cc2nc(C(=O)NC(C)(C)C(F)(F)F)cs2)cc1C [Example 109, 2-[4-({(E)-[Ethyl(methyl)amino]methylidene}amino)-2,5-dimethylbenzyl]-N-(1,1,1-trifluoro-2-methylpropan-2-yl)-1,3-thiazole-4-carboxamide hydrochloride] | 0.0039
